From ChEMBL document CHEMBL1201862, “PubChem BioAssay data set” (2004)
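Briefly, cells in 96-well plates were exposed to five compound concentrations for 48 h, and endpoints were estimated by linear interpolation. GI50 is the concentration that inhibits growth by half.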 The source made the active and inactive calls. Cut-off read from the data, not from the text of the source: active = GI50 up to about 1.1 µM and inactive = higher.

Columns and labels:
Assay in all cases: NCI anticancer screen, dose series, 48 h
786-0 = system: 786-0
A549 = system: A549
CCRF-CEM = system: CCRF-CEM
HOP-62 = system: HOP-62
HOP-92 = system: HOP-92
HT-29 = system: HT-29
M19-MEL = system: M19-MEL
MOLT-4 = system: MOLT-4
NCI-H226 = system: NCI-H226
NCI-H460 = system: NCI-H460
OVCAR-3 = system: OVCAR-3
OVCAR-5 = system: OVCAR-5
RPMI-8226 = system: RPMI-8226
SK-MEL-28 = system: SK-MEL-28
SR = system: SR
SW-620 = system: SW-620
UACC-257 = system: UACC-257
UO-31 = system: UO-31
MDA-MB-435 = system: MDA-MB-435
RXF 393 = system: RXF 393

| SMILES | GI50 (786-0) | GI50 (A549) | GI50 (CCRF-CEM) | GI50 (HOP-62) | GI50 (HOP-92) | GI50 (HT-29) | GI50 (M19-MEL) | GI50 (MOLT-4) | GI50 (NCI-H226) | GI50 (NCI-H460) | GI50 (OVCAR-3) | GI50 (OVCAR-5) | GI50 (RPMI-8226) | GI50 (SK-MEL-28) | GI50 (SR) | GI50 (SW-620) | GI50 (UACC-257) | GI50 (UO-31) | GI50 (MDA-MB-435) | GI50 (RXF 393) |
| --- | --- | --- | --- | --- | --- | --- | --- | --- | --- | --- | --- | --- | --- | --- | --- | --- | --- | --- | --- | --- |
| O=c1c2cc(Br)cc(Br)c2nc(CCCl)n1-c1ccc(O)c([N+](=O)[O-])c1 | 18.3 µM (inactive) | 15.5 µM (inactive) | 20.7 µM (inactive) | 18.7 µM (inactive) | 24 µM (inactive) | 20.6 µM (inactive) | 15.9 µM (inactive) | 23.8 µM (inactive) | 19.6 µM (inactive) | 21 µM (inactive) | 19.1 µM (inactive) | 18.9 µM (inactive) | 30.2 µM (inactive) | 19.7 µM (inactive) | 41.5 µM (inactive) | 19.4 µM (inactive) | 15.1 µM (inactive) | 19.7 µM (inactive) |  |  |
| CCCCC1NC=Nc2c1ccc1c2[nH]c2ccccc21 (configuration not stated) | 1.79 µM (inactive) | 2.3 µM (inactive) | 1.67 µM (inactive) | 5.32 µM (inactive) | 3.94 µM (inactive) | 1.86 µM (inactive) | 3.26 µM (inactive) | 2.05 µM (inactive) | 7.62 µM (inactive) | 2.17 µM (inactive) | 6.1 µM (inactive) | 4.63 µM (inactive) | 1.84 µM (inactive) | 10.3 µM (inactive) | 1.28 µM (inactive) | 1.95 µM (inactive) | 1.75 µM (inactive) | 10.3 µM (inactive) | 1.88 µM (inactive) | 0.713 µM (active) |
| CCCCCCCCCCCc1nnc(N)o1 | > 100 µM (inactive) | > 100 µM (inactive) |  | > 100 µM (inactive) | > 100 µM (inactive) | > 100 µM (inactive) | > 100 µM (inactive) | 26.6 µM (inactive) | > 100 µM (inactive) | > 100 µM (inactive) | > 100 µM (inactive) | > 100 µM (inactive) | > 100 µM (inactive) | > 100 µM (inactive) | > 10 µM (inactive) | > 100 µM (inactive) | > 100 µM (inactive) | 13.6 µM (inactive) |  |  |
| O=C(O)c1ccc2c(c1)C(=O)N(c1ccc(S(=O)(=O)c3ccc(N4C(=O)c5ccc(C(=O)O)cc5C4=O)cc3)cc1)C2=O | > 100 µM (inactive) | > 100 µM (inactive) | > 100 µM (inactive) | > 100 µM (inactive) |  | > 100 µM (inactive) | > 100 µM (inactive) | > 100 µM (inactive) | > 100 µM (inactive) | > 100 µM (inactive) | > 100 µM (inactive) | > 100 µM (inactive) | > 100 µM (inactive) | > 100 µM (inactive) | > 100 µM (inactive) | > 100 µM (inactive) | > 100 µM (inactive) | > 100 µM (inactive) |  | > 100 µM (inactive) |
| CC1(C)CCCC2(C)[C@@H]1CC[C@@]13CC(=O)[C@@](C)(CC[C@@H]21)C3 (some centres not stated) | > 100 µM (inactive) | 85.1 µM (inactive) | > 100 µM (inactive) | 82.2 µM (inactive) | > 100 µM (inactive) | 30 µM (inactive) | 31.5 µM (inactive) | 57.4 µM (inactive) | 83.4 µM (inactive) | 42.1 µM (inactive) | > 100 µM (inactive) | > 100 µM (inactive) | 57 µM (inactive) | > 100 µM (inactive) | 42.5 µM (inactive) | > 100 µM (inactive) | 32.7 µM (inactive) | > 100 µM (inactive) |  | 18.3 µM (inactive) |
| CC(=O)OCC1OC(n2cccnc2=O)C(OC(C)=O)C1OC(C)=O (configuration not stated) | > 100 µM (inactive) | > 100 µM (inactive) | > 100 µM (inactive) | > 100 µM (inactive) | > 100 µM (inactive) | > 100 µM (inactive) | > 100 µM (inactive) | > 100 µM (inactive) | > 100 µM (inactive) | > 100 µM (inactive) | > 100 µM (inactive) | > 100 µM (inactive) | > 100 µM (inactive) | > 100 µM (inactive) | > 100 µM (inactive) | > 100 µM (inactive) | > 100 µM (inactive) | > 100 µM (inactive) |  | > 100 µM (inactive) |
| COC1=CC(=O)c2c(ccc3ncnc(N)c23)C1=O | 1.78 µM (inactive) | 4.05 µM (inactive) | 0.665 µM (active) | 3.56 µM (inactive) | 1.63 µM (inactive) | 2.1 µM (inactive) | 1.69 µM (inactive) | 0.573 µM (active) | 2.2 µM (inactive) | 4.29 µM (inactive) | 1.48 µM (inactive) | 2 µM (inactive) | 1.45 µM (inactive) | 2.36 µM (inactive) | 0.164 µM (active) | 1.93 µM (inactive) | 1.66 µM (inactive) | 2.31 µM (inactive) | 0.233 µM (active) | 1.79 µM (inactive) |
| COc1cc2ccnc(-c3c4ccccc4c(N)c4c(OC)c(OC)ccc34)c2cc1OC | 2.65 µM (inactive) | 4.17 µM (inactive) | 2.37 µM (inactive) | 2.96 µM (inactive) | 1.79 µM (inactive) | 2.64 µM (inactive) | 3.87 µM (inactive) | 1.49 µM (inactive) | 2.07 µM (inactive) | 1.79 µM (inactive) |  |  |  | 2.36 µM (inactive) | 1.8 µM (inactive) | 2.28 µM (inactive) | 2.32 µM (inactive) | 3.18 µM (inactive) |  | 2.4 µM (inactive) |
| C/C(=N/NS(=O)(=O)c1ccc(C)cc1)c1cccc[n+]1[O-] | > 100 µM (inactive) | > 100 µM (inactive) | > 100 µM (inactive) | > 100 µM (inactive) | > 100 µM (inactive) | > 100 µM (inactive) | > 100 µM (inactive) | > 100 µM (inactive) |  | > 100 µM (inactive) | > 100 µM (inactive) | > 100 µM (inactive) | > 100 µM (inactive) | > 100 µM (inactive) | > 100 µM (inactive) | > 100 µM (inactive) | > 100 µM (inactive) | > 100 µM (inactive) |  |  |
| COc1cc(C2c3cc4c(cc3[C@@H](Nc3ccc(N(C)C)cc3)[C@H]3COC(=O)C23)OCO4)cc(OC)c1O (some centres not stated) | 0.228 µM (active) | 0.0871 µM (active) | 0.153 µM (active) | 0.103 µM (active) | 0.36 µM (active) | 1.13 µM (inactive) | 0.839 µM (active) | 0.108 µM (active) | 0.0545 µM (active) | 0.0214 µM (active) | 8.04 µM (inactive) | 0.818 µM (active) |  | 3.79 µM (inactive) | 0.0127 µM (active) | 0.807 µM (active) | 2.23 µM (inactive) | 0.607 µM (active) |  | 0.951 µM (active) |
| Cc1ccc2nc3c(Cl)cc(=O)cc-3sc2c1 | 19.8 µM (inactive) | 19.5 µM (inactive) | 1.96 µM (inactive) |  | 21.8 µM (inactive) | 29.4 µM (inactive) | 19.7 µM (inactive) | 10.9 µM (inactive) | 27.2 µM (inactive) | 29.4 µM (inactive) | 3 µM (inactive) | > 10 µM (inactive) |  | 35 µM (inactive) | > 10 µM (inactive) | 21.6 µM (inactive) | 20.2 µM (inactive) | 34 µM (inactive) |  |  |
| N=c1n(CC(=O)NC23CC4CC(CC(C4)C2)C3)c2ccccc2n1CC(=O)NC12CC3CC(CC(C3)C1)C2 | 1.8 µM (inactive) | 2.07 µM (inactive) | 2.8 µM (inactive) | 2.02 µM (inactive) | 1.65 µM (inactive) | 1.8 µM (inactive) | 1.72 µM (inactive) | 2.64 µM (inactive) |  | 1.78 µM (inactive) | 1.88 µM (inactive) | 1.69 µM (inactive) | 2.21 µM (inactive) | 1.79 µM (inactive) | 1.87 µM (inactive) | 1.63 µM (inactive) | 1.73 µM (inactive) | 13.2 µM (inactive) |  | 1.75 µM (inactive) |
| COc1cc(C(=O)C/C(CCC(=O)Nc2ccccc2[N+](=O)[O-])=N\NC(=O)C(N)=O)ccc1O | > 100 µM (inactive) | > 100 µM (inactive) | > 100 µM (inactive) | > 100 µM (inactive) | 65.3 µM (inactive) | > 100 µM (inactive) | > 100 µM (inactive) | > 100 µM (inactive) | > 100 µM (inactive) | > 100 µM (inactive) | > 100 µM (inactive) | > 100 µM (inactive) |  | > 100 µM (inactive) | > 100 µM (inactive) | > 100 µM (inactive) | > 100 µM (inactive) | > 100 µM (inactive) |  | 76.4 µM (inactive) |
| O=C1/C(=C/c2ccc3c(c2)OCCO3)CCC/C1=C\c1ccc2c(c1)OCCO2 | 22.9 µM (inactive) | 23.8 µM (inactive) | 29.9 µM (inactive) | 33.3 µM (inactive) | 32.1 µM (inactive) | 6.9 µM (inactive) | 18.2 µM (inactive) | 20.5 µM (inactive) |  | 22.8 µM (inactive) | 20.3 µM (inactive) | 32.9 µM (inactive) | 16.1 µM (inactive) | 24.3 µM (inactive) | 23.8 µM (inactive) | 18.2 µM (inactive) | 20.1 µM (inactive) | 82.4 µM (inactive) |  | 20 µM (inactive) |
